From patent publication US8685658B2, “Compositions and methods for the treatment of diseases associated with aberrant cilia assembly and regulation” (Fox Chase Cancer Center, priority 2006, dated 2014)

How the values were obtained:
hTERT-RPE1 cells [1] = assay: serum-induced ciliary disassembly in ciliated hTERT-RPE1 cells; assay type: cell-based; details: compounds added 2 hours prior to induction; tubacin and niltubacin 2 μM, GSK3 inhibitor 2 μM, FTI-277 50 nM
Method: hTERT-RPE1 cells were grown in DMEM with 10% fetal bovine serum (FBS). For analysis of ciliary disassembly, cells were plated at 30% confluence in plates containing glass cover slips, and starved for 48 hours (in Opti-MEM or regular DMEM, without added serum) to induce cilia formation, followed by treatments described hereinbelow. For siRNA treatment, cells were initially plated in DMEM/10% FBS in plates containing cover slips, and 12 hours later siRNA transfection was performed in Opti-MEM with Oligofectamine (Invitrogen) according to manufacturer recommendations, and fixed 48 hours after transfection, following treatments indicated in Results. The remaining cells on plate were lysed, then either directly analyzed by Western blot analysis, or used for immunoprecipitation (IP)-kinase reaction to measure AurA activity.
Cells were fixed with 4% paraformaldehyde (10 min) then methanol (5 min), permeabilized with 1% Triton-X100 in PBS, blocked in 1×PBS, 3% BSA, and incubated with antibodies using standard protocols. Primary antibodies included rabbit polyclonal anti-Aurora A and anti-phospho-AuroraA/T288, (Cell Signaling), mouse mAb anti-HEF1 (14A11), polyclonal anti-γ-tubulin (Sigma), anti-α-tubulin mAb (Sigma), anti-acetylated α-tubulin mAb (clone 6-11B-1, Sigma, and clone K(Ac)40 Biomol), anti-IFT88 and anti-IFT20 (gifts of G. Pazour), mouse anti-glutamylated tubulin (Sigma), and anti-HDAC6 (Upstate). Secondary antibodies labeled with Alexa-488, Alexa-568, and Alexa-633, and TOTO-3 dye to stain DNA, were from Molecular Probes/Invitrogen. DNA was co-stained in some experiments by propidium iodine (Sigma) or Draq5 (Alexis), Confocal microscopy was performed using a Radiance 2000 laser scanning confocal microscope ((Carl Zeiss, Thornwood, N.Y.) coupled to a Nikon Eclipse E800 upright microscope (Nikon). Statistical analysis of data by one-way ANOVA was performed using GraphPad Instat 3.0 (San Diego, Calif.).

acetylated tubulin = assay: intracellular levels of acetylated tubulin (Western blot); assay type: cell-based; details: vs DMSO vehicle
Method: (§1) For microinjection, recombinant glutathione-S-transferase (GST), GST fused AurA mutants T288A and D274N) produced from BL21 (DE3) bacteria were purified using the MicroSpin GST Purification Module (Amersham Biotech.). Purified recombinant AurA was purchased from Upstate; this AurA was pre-activated based on incubation with ATP. […] To prepare lysates for Western blotting and IP, mammalian cells were disrupted by M-PER lysis buffer (Pierce) supplemented with EDTA-free protease inhibitor cocktail (Roche). Lysates used for IP were incubated overnight with antibody at 4° C., subsequently incubated for 2 hours with protein A/G-sepharose (Pierce), washed, and resolved by SDS-PAGE. Western blotting was performed using standard procedures and proteins visualized using the West-Pico system (Pierce). Antibodies used included mouse monoclonal antibody (mAb) anti-HEF1 2G9 (Pugacheva and Golemis, 2005), anti-α-tubulin mAb (Sigma), anti-AurA (BD Bioscience) for Western blotting, anti-AurA rabbit polyclonal (Cell Signaling) for IP, anti-Phospho-AurA/T288 (BioLegend), anti-Phospho-AurA/T288 (Cell Signaling), anti-HDAC6 rabbit polyclonal (Upstate; 1:5000), anti-HDAC2 rabbit polyclonal (Invitrogen) and mAb anti-β-actin (AC15, Sigma), anti-IFT88 and anti-IFT20. Secondary horseradish peroxidase (HRP)-conjugated antibodies were from Amersham Biotech.

hTERT-RPE1 cells [2] = assay: loss of cilia after microinjection of AurA proteins into ciliated hTERT-RPE1 cells; assay type: cell-based
Method: as §1
Microinjections were performed on a Nikon TE300 Microscope (Nikon, Melville, N.Y.) that was equipped with an Eppendorf Transjector 5246 semi-automatic microinjector and micromanipulator (Eppendorf, Westbury, N.Y.). […] Proteins were pre-filtered through a 0.2-μm Milliopore membrane and mixed with Dextran Green488 (Molecular Probes) to mark injected cells. Injected cells were incubated at 37° C. before fixation. Typically, 150 cells were microinjected in each of 3 experiments.

hTERT-RPE1 cells [3] = assay: FACS cell cycle profile after serum stimulation; assay type: cell-based
hTERT-RPE1 cells [4] = assay: growth factor-induced disassembly of cilia in hTERT-RPE1 cells; assay type: cell-based; details: 10 ng/ml
Method: FIG. 4. Growth factor-induced disassembly of cilia in hTERT-RPE1 cells. A. Time course of disassembly of cilia in cells treated with EGF, PDGF, and TGF-β. […] B. Western blot indicating T288-phosphorylated and total AurA in cells treated with PDGF or EGF, at times indicated after treatment. C. Immunofluorescence depicting cilia (red, acetylated a α-tubulin) and phospho-AurA (green) staining at the basal body at 2 hours after stimulation with PDGF, EGF, or serum. Phosphorylated AurA is apparent in PDGF- and serum-treated cells, but not EGF-treated cells: further, many well-formed cilia are apparent in EGF-treated cells (marked with asterisks) in contrast to other conditions. Scale bar represents […].
hTERT-RPE1 cells were grown in DMEM with 10% fetal bovine serum (FBS). For analysis of ciliary disassembly, cells were plated at 30% confluence in plates containing glass cover slips, and starved for 48 hours (in Opti-MEM or regular DMEM, without added serum) to induce cilia formation, followed by treatments described hereinbelow. […] The remaining cells on plate were lysed, then either directly analyzed by Western blot analysis, or used for immunoprecipitation (IP)-kinase reaction to measure AurA activity.

[5] = target: T1, in vitro translated and immunoprecipitated HDAC6, Q9UBN7
T1 chain: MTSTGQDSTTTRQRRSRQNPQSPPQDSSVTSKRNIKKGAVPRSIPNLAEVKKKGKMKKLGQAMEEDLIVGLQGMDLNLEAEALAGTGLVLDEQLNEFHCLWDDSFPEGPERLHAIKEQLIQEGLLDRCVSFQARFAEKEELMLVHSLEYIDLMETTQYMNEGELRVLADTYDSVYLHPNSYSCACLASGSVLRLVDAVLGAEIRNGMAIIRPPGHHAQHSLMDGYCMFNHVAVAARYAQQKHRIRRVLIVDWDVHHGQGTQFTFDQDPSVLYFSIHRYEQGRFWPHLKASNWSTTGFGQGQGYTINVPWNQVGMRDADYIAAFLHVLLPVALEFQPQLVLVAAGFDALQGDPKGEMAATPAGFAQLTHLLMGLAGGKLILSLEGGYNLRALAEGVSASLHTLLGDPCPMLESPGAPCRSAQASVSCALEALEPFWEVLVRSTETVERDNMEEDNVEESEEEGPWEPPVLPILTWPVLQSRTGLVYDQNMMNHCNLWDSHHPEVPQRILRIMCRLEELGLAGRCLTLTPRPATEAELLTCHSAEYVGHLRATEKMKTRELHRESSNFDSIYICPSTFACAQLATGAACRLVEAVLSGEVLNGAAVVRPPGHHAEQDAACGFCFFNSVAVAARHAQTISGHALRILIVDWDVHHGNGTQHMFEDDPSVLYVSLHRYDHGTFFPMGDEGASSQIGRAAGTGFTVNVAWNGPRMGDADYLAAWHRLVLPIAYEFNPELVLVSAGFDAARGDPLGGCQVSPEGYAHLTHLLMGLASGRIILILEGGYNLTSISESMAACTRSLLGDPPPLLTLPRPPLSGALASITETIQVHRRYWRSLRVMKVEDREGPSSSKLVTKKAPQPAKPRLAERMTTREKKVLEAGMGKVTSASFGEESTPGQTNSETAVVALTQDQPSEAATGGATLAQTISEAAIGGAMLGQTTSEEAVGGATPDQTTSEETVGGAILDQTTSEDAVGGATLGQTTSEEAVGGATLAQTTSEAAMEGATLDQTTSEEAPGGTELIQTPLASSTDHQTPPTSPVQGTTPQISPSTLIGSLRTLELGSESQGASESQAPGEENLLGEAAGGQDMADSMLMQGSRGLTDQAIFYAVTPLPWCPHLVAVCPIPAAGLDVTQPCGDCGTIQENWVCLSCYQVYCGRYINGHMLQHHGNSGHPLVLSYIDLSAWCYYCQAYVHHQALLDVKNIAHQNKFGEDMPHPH

[6] = target: recombinant glutathione-S-transferase (GST)
[7] = 0.05 μM protein microinjected, low serum medium

COC(=O)[C@H](CCSC)NC(=O)c1ccc(NC[C@@H](N)CS)cc1-c1ccccc1 [FTI]
serum-induced ciliary disassembly (hTERT-RPE1 cells [1]): do not inhibit

O=C(CCCCCCC(=O)Nc1ccc([C@H]2O[C@@H](CSc3nc(-c4ccccc4)c(-c4ccccc4)o3)C[C@@H](c3ccc(CO)cc3)O2)cc1)NO [tubacin]
serum-induced ciliary disassembly (hTERT-RPE1 cells [1]): completely blocked | levels of acetylated tubulin in treated cells (acetylated tubulin): increased | ability of microinjected AurA to disassemble cilia (hTERT-RPE1 cells [2]; cells pre-treated for 3 hours with tubacin before aAurA microinjection): substantially limited | cell cycle profile at 2 h after serum stimulation (hTERT-RPE1 cells [3]; 2 h): neither tubacin treatment nor siRNA to HDAC6 influenced cell cycle profile | cell cycle profile at the later time point after serum stimulation (hTERT-RPE1 cells [3]; later time point (18-24 h)): accumulation in G2

O=C(O)CCCCCCC(=O)Nc1ccc([C@H]2O[C@@H](CSc3nc(-c4ccccc4)c(-c4ccccc4)o3)C[C@@H](c3ccc(CO)cc3)O2)cc1 [niltubacin]
serum-induced ciliary disassembly (hTERT-RPE1 cells [1]): no effect | levels of acetylated tubulin in treated cells (acetylated tubulin): not

CC(/C=C/C(=O)NO)=C\[C@@H](C)C(=O)c1ccc(N(C)C)cc1 [trichostatin A (TSA), trichostatin A]
serum-induced ciliary disassembly (hTERT-RPE1 cells [1]): completely blocked | levels of acetylated tubulin in treated cells (acetylated tubulin): increased

PDGF
ciliary disassembly response to growth factor (hTERT-RPE1 cells [4]): partial response

B1: recombinant activated AurA (Upstate) (protein)
chain: MDRSKENCISGPVKATAPVGGPKRVLVTQQFPCQNPLPVNSGQAQRVLCPSNSSQRIPLQAQKLVSSHKPVQNQKQKQLQATSVPHPVSRPLNNTQKSKQPLPSAPENNPEEELASKQKNEESKKRQWALEDFEIGRPLGKGKFGNVYLAREKQSKFILALKVLFKAQLEKAGVEHQLRREVEIQSHLRHPNILRLYGYFHDATRVYLILEYAPLGTVYRELQKLSKFDEQRTATYITELANALSYCHSKRVIHRDIKPENLLLGSAGELKIADFGWSVHAPSSRRTTLCGTLDYLPPEMIEGRMHDEKVDLWSLGVLCYEFLVGKPPFEANTYQETYKRISRVEFTFPDFVTEGARDLISRLLKHNPSQRPMLREVLEHPWITANSSKPSNCQNKESASKQS
in vitro tubulin deacetylation assay [5]: AurA-phosphorylated HDAC6 was much more potent than unphosphorylated HDAC6 in deacetylating α-tubulin | in vitro kinase assay (32P autoradiography) [6]: AurA phosphorylated HDAC6, but not HDAC2 or the GST negative control | injected cells lacking cilia (hTERT-RPE1 cells [2]; 0.05 μM protein microinjected, low serum medium, as soon as cells could be fixed): more than 80%

B2: T288A: T288A AurA, a hypomorphic mutant (protein, UniProt O14965 1-403, looked up, variant T288A)
Aurora kinase A: MDRSKENCISGPVKATAPVGGPKRVLVTQQFPCQNPLPVNSGQAQRVLCPSNSSQRIPLQAQKLVSSHKPVQNQKQKQLQATSVPHPVSRPLNNTQKSKQPLPSAPENNPEEELASKQKNEESKKRQWALEDFEIGRPLGKGKFGNVYLAREKQSKFILALKVLFKAQLEKAGVEHQLRREVEIQSHLRHPNILRLYGYFHDATRVYLILEYAPLGTVYRELQKLSKFDEQRTATYITELANALSYCHSKRVIHRDIKPENLLLGSAGELKIADFGWSVHAPSSRRTALCGTLDYLPPEMIEGRMHDEKVDLWSLGVLCYEFLVGKPPFEANTYQETYKRISRVEFTFPDFVTEGARDLISRLLKHNPSQRPMLREVLEHPWITANSSKPSNCQNKESASKQS
loss of cilia after microinjection (hTERT-RPE1 cells [2]; [7]): eventual partial loss of cilia

B3: D274N: D274N AurA, an inactive mutant (protein, UniProt O14965 1-403, looked up, variant D274N)
Aurora kinase A: MDRSKENCISGPVKATAPVGGPKRVLVTQQFPCQNPLPVNSGQAQRVLCPSNSSQRIPLQAQKLVSSHKPVQNQKQKQLQATSVPHPVSRPLNNTQKSKQPLPSAPENNPEEELASKQKNEESKKRQWALEDFEIGRPLGKGKFGNVYLAREKQSKFILALKVLFKAQLEKAGVEHQLRREVEIQSHLRHPNILRLYGYFHDATRVYLILEYAPLGTVYRELQKLSKFDEQRTATYITELANALSYCHSKRVIHRDIKPENLLLGSAGELKIANFGWSVHAPSSRRTTLCGTLDYLPPEMIEGRMHDEKVDLWSLGVLCYEFLVGKPPFEANTYQETYKRISRVEFTFPDFVTEGARDLISRLLKHNPSQRPMLREVLEHPWITANSSKPSNCQNKESASKQS
loss of cilia after microinjection (hTERT-RPE1 cells [2]; [7]): did not induce loss of cilia
